Assay results as given in patent US5880147A, “Amide derivatives having ACAT inhibitory activity, their preparation and their therapeutic and prohylactic use” (Sankyo Company, Limited, priority 1995, dated 1999).

Each molecule was assayed against T1, ACAT (acyl-CoA: cholesterol acyl transferase) (Mus musculus, UniProt Q61263) (assay: Inhibition of ACAT in M.phi. (mouse peritoneal macrophages)). Settings: β-VLDL 50 μg cholesterol/ml, [14C]oleate-albumin, 37° C., 3 hours.
T1 construct: endogenous in cells; host or cells: primary adherent peritoneal macrophages from unstimulated female DDY mice
T1 sequence (Q61263 1-540): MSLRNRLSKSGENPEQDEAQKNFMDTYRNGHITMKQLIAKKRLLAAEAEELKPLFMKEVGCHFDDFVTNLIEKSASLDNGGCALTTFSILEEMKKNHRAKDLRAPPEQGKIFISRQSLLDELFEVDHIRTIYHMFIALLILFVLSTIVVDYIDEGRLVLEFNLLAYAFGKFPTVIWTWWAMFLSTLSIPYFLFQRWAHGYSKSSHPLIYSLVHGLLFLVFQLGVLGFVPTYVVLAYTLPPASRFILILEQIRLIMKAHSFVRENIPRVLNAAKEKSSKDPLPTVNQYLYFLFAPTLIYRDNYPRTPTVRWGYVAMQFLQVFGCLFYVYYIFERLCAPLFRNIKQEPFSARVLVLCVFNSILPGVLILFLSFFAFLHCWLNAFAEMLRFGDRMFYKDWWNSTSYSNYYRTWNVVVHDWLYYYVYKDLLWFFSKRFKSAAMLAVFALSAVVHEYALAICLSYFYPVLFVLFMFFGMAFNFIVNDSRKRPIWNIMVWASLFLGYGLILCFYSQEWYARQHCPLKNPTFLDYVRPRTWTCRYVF
Type: cell-based, mouse (female DDY mice)
Procedure: Blood was obtained [using the anticoagulant ethylene diamine tetraacetic acid (5 mM)] from Japanese White rabbits which had been fed a 2% w/w cholesterol diet for 2 weeks and then fasted overnight prior to removing the blood. β-VLDL (d<1.006 g/ml) was isolated by ultracentrifugation from the plasma according to the method of Hatch and Lees [Hatch, F T. and Lees, R S.,Adv. Lipid Res., 6 1-68 (1968)] and dialyzed at 4° C. against 10 mM of a sodium phosphate buffer (pH 7.4) containing 150 mM sodium chloride.
Peritoneal cells were harvested from unstimulated female DDY mice (body weight 20-30 g) in phosphate buffer saline (PBS) as described by Edelson and Cohn [Edelson, P J. and Cohn, Z A.,1976, "In Vitro Methods in Cell-Mediated and Tumor Immunity", editors Bloon, B R and David, J R., (Academic Press, New York), 330-340.]. The fluid from the mice was pooled and the cells were collected by centrifugation at 400×g for 10 minutes at 4° C., and washed once with PBS. The cells were resuspended in Dulbecco's modified Eagle's medium (DMEM) containing 10% (vol/vol) fetal calf serum (FCS), penicillin (100 units/ml), and streptomycin (100 μg/ml) at a final concentration of 3×10^6 cells per ml. Aliquots (1 ml) of this cell suspension were dispersed onto plastic petri dishes (35×10 mm) and then incubated in a CO2 incubator (5% CO2 /95% air) at 37° C. for 2 hours. Each dish was washed twice with PBS without serum to remove nonadherent cells.
Inhibition of ACAT in M.phi. was determined according to the method described by Brown et al. Brown, M S., Goldstein J L., Krieger, M., Ho, Y K. and Anderson, R G W. (1979) J. Cell Biol., 82, 597-613.]. Cholesterol reacylation was initiated by adding β-VLDL (final concentration 50 μg cholesterol/ml), [^14 C]oleate-albumin complex (final concentrations: 0.2 mM oleate and 0.6 mg/ml albumin) and a test compound dissolved in ethanol into the M.phi. monolayer, and the preparation was incubated at 37° C. for 3 hours in a CO2 incubator. Cells were washed three times with PBS and cellular lipid was extracted with 1 ml hexane/isopropanol (3:2 vol/vol). A lipid extract was evaporated to dryness in a stream of nitrogen. Cholesterol [^14 C]oleated was seperated by thin layer chromatography through silica gel using an 85:15:1 by volume mixture of hexane, diethyl ether and acetic acid as developing solvents. The ACAT activity in M.phi. was determined by measuring the radioactivity and an inhibition rate (%) was calculated by comparing a control activity with those of the test compound at given concentrations. The results are shown in the following Table, in which the compounds of the present invention are identified by the number of the Example given hereafter in which they are prepared.

IC50	Compound
0.0418 µM	CCCCCC(CC(=O)Nc1cc(C(N)=O)ccc1C(C)(C)C)c1ccc(OC)cc1OC (stereo not drawn) [Example 2, N-(2-t-Butyl-5-carbamoylphenyl)-3-(2,4-dimethoxyphenyl)octanamide]
0.00597 µM	CCCCCC(CC(=O)Nc1cc(CC(N)=O)ccc1C(C)(C)C)c1ccc(OC)cc1OC (stereo not drawn) [Example 4, N-[2-t-Butyl-5-(carbamoylmethyl)phenyl]-3-(2,4-dimethoxyphenyl)octanamide]
0.0288 µM	CCCCCC(CC(=O)Nc1cc(CC#N)ccc1C(C)(C)C)c1ccc(OC)cc1OC (stereo not drawn) [Example 19, N-(2-t-Butyl-5-cyanomethylphenyl)-3-(2,4-dimethoxyphenyl)octanamide]
0.0299 µM	CCCCCC(CC(=O)Nc1cc(C(=O)NC)ccc1C(C)(C)C)c1ccc(OCC(=O)NCCCC)cc1OC (stereo not drawn) [Example 64, N-(2-t-Butyl-5-N'-methylcarbamoylphenyl)-3-(4-N"-butylcarbamoylmethloxy-2-methoxyphenyl)octanamide]
0.0352 µM	CCCCCC(CC(=O)Nc1cc(CN2C(=O)c3ccccc3C2=O)ccc1C(C)(C)C)c1cccc2c1OCCO2 (stereo not drawn) [Example 142, N-[2-t-Butyl-5-(phthalimidomethyl)phenyl]-3-(2,3-ethylenedioxyphenyl)octanamide]
0.018 µM	CCCCCC(CC(=O)Nc1cc(CNC(=O)c2cccnc2)ccc1C(C)(C)C)c1ccc(OC)cc1OC (stereo not drawn) [Example 158, N-[2-t-Butyl-5-(N'-3-pyridylcarbonylaminomethyl)phenyl]-3-(2,4-dimethoxyphenyl)octanamide]

Further lines, the molecule ahead of its results:

Compound	IC50
CCCCCC(CC(=O)Nc1cc(C(=O)NC)ccc1C(C)(C)C)c1ccc(OC)cc1OC (stereo not drawn) [Example 1, N-(2-t-Butyl-5-N'-methylcarbamoylphenyl)-3-(2,4-dimethoxphenyl)octanamide]	0.0597 µM
CCCCCC(CC(=O)Nc1cc(CC(=O)NC)ccc1C(C)(C)C)c1ccc(OC)cc1OC (stereo not drawn) [Example 3]	0.0311 µM
CCCCCC(CC(=O)Nc1cc(COC(N)=O)ccc1C(C)(C)C)c1ccc(OC)cc1OC (stereo not drawn) [Example 5, N-[2-t-Bu=l-5-(carbamoyloxymethyl)phenyl]-3-(2,4-dimethoxyphenyl)octanamide]	0.0681 µM
CCCCCC(CC(=O)Nc1cc(CNS(=O)(=O)CC)ccc1C(C)(C)C)c1ccc(OC)cc1OC (stereo not drawn) [Example 11, N-[2-t-Butyl-5-(ethylsulfonylaminomethyl)phenyl]-3-(2,4-dimethoxyphenyl)octanamide]	0.00976 µM
CCCCCC(CC(=O)Nc1cc(CNC(=O)N(C)C)ccc1C(C)(C)C)c1ccc(OC)cc1OC (stereo not drawn) [Example 23, N-[2-t-Butyl-5-(N',N'-dimethylaminocarbonylaminomethyl)phenyl]-3-(2,4-dimethoxyphenyl)octanamide]	0.0106 µM
CCCCCC(CC(=O)Nc1cc(C(=O)NC)ccc1C(C)(C)C)c1cc(C(=O)NC)c(OC)cc1OC (stereo not drawn) [Example 35, N-(2-t-Butyl-5-N'-methylcarbamoylphenyl)-3-(2,4-dimethoxy-5-N"-methylcarbamoylphenyl)octanamide]	0.0628 µM
CCCCCCC(CC(=O)Nc1cc(C(N)=O)ccc1C(C)(C)C)c1ccc(OC)cc1OC (stereo not drawn) [Example 44, N-(2-t-Butyl-5-carbamoylphenyl)-3-(2,4-dimethoxyphenyl)nonanamide]	0.0235 µM
CCCCCC(CC(=O)Nc1cc(C(=O)NC(=O)C(C)C)ccc1C(C)(C)C)c1ccc(OC)cc1OC (stereo not drawn) [Example 131, N-[2-t-Butyl-5-(2-methylpropanoyl)aminocarbonylphenyl)-3-(2,4-dimethoxyphenyl]octanamide]	0.0173 µM
CCCCCC(CC(=O)Nc1cc(C(=O)NC(=O)c2cccnc2)ccc1C(C)(C)C)c1ccc(OC)cc1OC (stereo not drawn) [Example 136, N-{2-t-Butyl-5-[(3-pyridyl)carbonlaminocarbonyl]phenyl}-3-(2,4-dimethoxyphenyl)octanamide]	0.00965 µM
CCCCCC(CC(=O)Nc1cc(C(=O)Nc2ccccn2)ccc1C(C)(C)C)c1c(OC)cccc1OC (stereo not drawn) [Example 165, N-{2-t-Butyl-5-[N-(2-pyridyl)carbamoyl]phenyl}-3-(2,6-dimethoxyphenyl)octanamide]	0.00137 µM
CCCCCC(CC(=O)Nc1cc(CNC(=O)NC(C)C)ccc1C(C)(C)C)c1cccc2c1OCCO2 (stereo not drawn) [Example 173, N-[2-t-Butyl-5-(N'-isopropylureidomethyl)phenyl]-3-(2,3-ethylenedioxyphenyl)octanamide]	0.0176 µM
CCCCCC(CC(=O)Nc1cc(CCC(=O)NC)ccc1C(C)(C)C)c1cc(OC)c(OC)cc1OC (stereo not drawn) [Example 186, N-[2-t-Butyl-5-(3-methylamino-3-oxopropyl)phenyl]-3-(2,4,5-trimethoxyphenyl)octanamide]	0.0797 µM
